Data published in ChEMBL document CHEMBL3997802, “Design, Synthesis, and Evaluation of Isaindigotone Derivatives To Downregulate c-myc Transcription via Disrupting the Interaction of NM23-H2 with G-Quadruplex” (J Med Chem, 2017).
Activity calls are given as the source filed them.

Columns and labels:
[1] = Effect on BRCA1 protein expression in mouse primary mesangial cells up to 8 uM by Western blot method; assay type: ADME, cell-based; settings: primary mesangial cell
[2] = Inhibition of thiazole orange binding to c-Myc Pu18 G-quadruplex DNA (unknown origin) at 10 uM after 30 secs by fluorescence spectrophotometric method
SiHa [3] = assay: Inhibition of colony formation in human SiHa cells up to 4 uM after 7 days by crystal violet staining based assay; assay type: functional, cell-based
[4] = Effect on c-Myc protein expression in mouse primary mesangial cells up to 8 uM by Western blot method; assay type: ADME, cell-based; settings: primary mesangial cell
Homo sapiens [5] = species on record: Homo sapiens; assay: Transrepression of c-Myc G-quadruplex DNA in human SiHa cells at 8 uM after 96 hrs by DAPI staining based immunofluoresence microscopic method; assay type: cell-based
[6] = Inhibition of thiazole orange binding to c-Myc Pu27 G-quadruplex DNA (unknown origin) at 10 uM after 30 secs by fluorescence spectrophotometric method
SiHa [7] = assay: Cytotoxicity against human SiHa cells assessed as reduction in cell viability up to 8 uM after 48 hrs by MTT assay; assay type: cell-based
[8] = Stabilization of 5'-FAM/3'-TAMRA labeled c-Myc Pu18 G-quadruplex DNA (unknown origin) assessed as change in melting temperature at 1 uM after overnight incubation by FRET assay
[9] = biological target: T1, Cellular tumor antigen p53 (Mus musculus, UniProt P02340); assay: Effect on p53 phosphorylation in mouse primary mesangial cells up to 8 uM by Western blot method; assay type: ADME
[10] = Transrepression of c-Myc Pu43 G-quadruplex DNA (unknown origin) expressed in human SiHa cells at 8 uM after 48 hrs by luciferase reporter gene assay relative to control; assay type: cell-based
[11] = Effect on cleaved caspase-3 protein expression in mouse primary mesangial cells up to 8 uM by Western blot method; assay type: ADME, cell-based; settings: primary mesangial cell
Homo sapiens [12] = species on record: Homo sapiens; assay: Inhibition of NM23-H2 binding to c-Myc G-quadruplex DNA in human SiHa cells assessed as effect on p15 protein expression by Western blot method; assay type: cell-based
[13] = Growth inhibition of mouse primary mesangial cells at 0.25 to 1 times cytotoxic IC50 after 100 hrs by real time cellular analysis; assay type: cell-based; settings: primary mesangial cell
[14] = Inhibition of 5'-biotin-labeled c-Myc Pu18 G-quadruplex DNA (unknown origin) interaction with His-tagged NM23-H2 assessed as ratio of Kd for NM23-H2-DNA complex in presence of compound to Kd for […]-DNA complex in absence of compound at 20 uM preincubated with NM23-H2 for 1 hr followed by addition of DNA measured after overnight incubation by ELISA
SiHa [15] = assay: Effect on NM23-H2 mRNA level in human SiHa cells up to 8 uM after 4 days by RT-PCR method; assay type: functional, cell-based
[16] = Effect on NM23-H2 protein expression in mouse primary mesangial cells up to 8 uM by Western blot method; assay type: ADME, cell-based; settings: primary mesangial cell
Homo sapiens [17] = species on record: Homo sapiens; assay: Inhibition of NM23-H2 binding to c-Myc G-quadruplex DNA in human SiHa cells assessed as effect on p27Kip1 protein expression by Western blot method; assay type: cell-based
[18] = Inhibition of unwinding activity of His-tagged NM23-H2 to 5'-FAM/3'-TAMRA labeled c-Myc Pu18 G-quadruplex DNA (unknown origin) by FRET assay
[19] = Inhibition of His-tagged NM23-H2 binding to 5'-biotin-labeled c-Myc Pu18 ssDNA (unknown origin) after 10 mins by filter binding assay
[20] = Inhibition of His-tagged NM23-H2 binding to 5'-biotin-labeled c-Myc Pu18 G-quadruplex DNA (unknown origin) after 10 mins by filter binding assay
SiHa [21] = assay: Effect on NM23-H2 protein expression in human SiHa cells up to 8 uM after 4 days by Western blot method; assay type: functional, cell-based
[22] = Transrepression of c-Myc Pu43 G-quadruplex DNA (unknown origin) expressed in human SiHa cells after 48 hrs by luciferase reporter gene assay; assay type: cell-based
[23] = Transrepression of c-Myc Pu43 G-quadruplex DNA (unknown origin) expressed in human SiHa cells at 4 uM after 48 hrs by luciferase reporter gene assay relative to control; assay type: cell-based
Homo sapiens [24] = species on record: Homo sapiens; assay: Inhibition of NM23-H2 binding to c-Myc G-quadruplex DNA in human SiHa cells assessed as effect on phosphorylated p53 protein expression by Western blot method; assay type: cell-based
SiHa [25] = assay: Growth inhibition of human SiHa cells after 50 hrs by real time cellular analysis; assay type: functional, cell-based
[26] = Induction of G-quadruplex formation in wild type c-Myc Pu43 DNA (unknown origin) in pH 7.4 Tris HCl at 25 uM after overnight incubation in absence of Kcl by CD spectroscopic analysis
Homo sapiens [27] = species on record: Homo sapiens; assay: Inhibition of NM23-H2 binding to c-Myc G-quadruplex DNA in human SiHa cells assessed as effect on cyclin D3 protein expression by Western blot method; assay type: cell-based
Homo sapiens [28] = species on record: Homo sapiens; assay: Inhibition of NM23-H2 binding to c-Myc G-quadruplex DNA in human SiHa cells assessed as downregulation of c-Myc mRNA level after 4 days by RT-PCR method; assay type: cell-based
[29] = Transrepression of c-Myc MUT Pu43 DNA (unknown origin) expressed in human SiHa cells up to 8 uM after 48 hrs by luciferase reporter gene assay relative to control; assay type: cell-based
Homo sapiens [30] = species on record: Homo sapiens; assay: Inhibition of NM23-H2 binding to c-Myc G-quadruplex DNA in human SiHa cells assessed as effect on cleaved PARP protein expression by Western blot method; assay type: cell-based
[31] = Effect on CDK6 protein expression in mouse primary mesangial cells up to 8 uM by Western blot method; assay type: ADME, cell-based; settings: primary mesangial cell
Homo sapiens [32] = species on record: Homo sapiens; assay: Inhibition of NM23-H2 binding to c-Myc G-quadruplex DNA in human SiHa cells assessed as effect on BRCA1 protein expression by Western blot method; assay type: cell-based
Homo sapiens [33] = species on record: Homo sapiens; assay: Inhibition of NM23-H2 binding to c-Myc promoter DNA in human SiHa cell nuclear extract after 4 days by ChIP analysis
SiHa [34] = assay: Growth inhibition of human SiHa cells transfected with NM23-H2 siRNA up to 16 uM after 100 hrs by real time cellular analysis; assay type: functional, cell-based
Homo sapiens [35] = species on record: Homo sapiens; assay: Inhibition of NM23-H2 binding to c-Myc G-quadruplex DNA in human SiHa cells assessed as downregulation of c-Myc protein expression at 0.5 times cytotoxic IC50 after 4 days by Western blot method; assay type: cell-based
[36] = Transrepression of c-Myc Pu43 G-quadruplex DNA (unknown origin) expressed in human SiHa cells at 6 uM after 48 hrs by luciferase reporter gene assay relative to control; assay type: cell-based
Homo sapiens [37] = species on record: Homo sapiens; assay: Inhibition of NM23-H2 binding to c-Myc G-quadruplex DNA in human SiHa cells assessed as effect on cleaved caspase-3 protein expression by Western blot method; assay type: cell-based
[38] = Transrepression of c-Myc Pu43 G-quadruplex DNA (unknown origin) expressed in human SiHa cells at 1.1 uM after 48 hrs by luciferase reporter gene assay relative to control; assay type: cell-based
SiHa [39] = assay: Effect on NM23-H2 protein expression in human SiHa cells up to 2.2 uM after 4 days by Western blot method; assay type: functional, cell-based
Homo sapiens [40] = species on record: Homo sapiens; assay: Transrepression of c-Myc G-quadruplex DNA in human SiHa cells at 2.2 uM after 96 hrs by DAPI staining based immunofluoresence microscopic method; assay type: cell-based
[41] = biological target: T1, Cellular tumor antigen p53; assay: Effect on p53 phosphorylation in mouse primary mesangial cells up to 2.2 uM by Western blot method; assay type: ADME
SiHa [42] = assay: Cytotoxicity against human SiHa cells assessed as reduction in cell viability up to 2.2 uM after 48 hrs by MTT assay; assay type: cell-based
[43] = Effect on NM23-H2 protein expression in mouse primary mesangial cells up to 2.2 uM by Western blot method; assay type: ADME, cell-based; settings: primary mesangial cell
SiHa [44] = assay: Inhibition of colony formation in human SiHa cells up to 1.1 uM after 7 days by crystal violet staining based assay; assay type: functional, cell-based
[45] = Transrepression of c-Myc Pu43 G-quadruplex DNA (unknown origin) expressed in human SiHa cells at 1.65 uM after 48 hrs by luciferase reporter gene assay relative to control; assay type: cell-based
SiHa [46] = assay: Growth inhibition of human SiHa cells after 40 hrs by real time cellular analysis; assay type: functional, cell-based
[47] = Transrepression of c-Myc MUT Pu43 DNA (unknown origin) expressed in human SiHa cells up to 2.2 uM after 48 hrs by luciferase reporter gene assay relative to control; assay type: cell-based
[48] = Transrepression of c-Myc Pu43 G-quadruplex DNA (unknown origin) expressed in human SiHa cells at 2.2 uM after 48 hrs by luciferase reporter gene assay relative to control; assay type: cell-based
SiHa [49] = assay: Growth inhibition of human SiHa cells transfected with NM23-H2 siRNA up to 4.4 uM after 100 hrs by real time cellular analysis; assay type: functional, cell-based
[50] = Effect on c-Myc protein expression in mouse primary mesangial cells up to 2.2 uM by Western blot method; assay type: ADME, cell-based; settings: primary mesangial cell
[51] = Effect on cleaved caspase-3 protein expression in mouse primary mesangial cells up to 2.2 uM by Western blot method; assay type: ADME, cell-based; settings: primary mesangial cell
[52] = Effect on BRCA1 protein expression in mouse primary mesangial cells up to 2.2 uM by Western blot method; assay type: ADME, cell-based; settings: primary mesangial cell
[53] = Effect on CDK6 protein expression in mouse primary mesangial cells up to 2.2 uM by Western blot method; assay type: ADME, cell-based; settings: primary mesangial cell
SiHa [54] = assay: Effect on NM23-H2 mRNA level in human SiHa cells up to 2.2 uM after 4 days by RT-PCR method; assay type: functional, cell-based

T1 sequence (P02340 whole entry): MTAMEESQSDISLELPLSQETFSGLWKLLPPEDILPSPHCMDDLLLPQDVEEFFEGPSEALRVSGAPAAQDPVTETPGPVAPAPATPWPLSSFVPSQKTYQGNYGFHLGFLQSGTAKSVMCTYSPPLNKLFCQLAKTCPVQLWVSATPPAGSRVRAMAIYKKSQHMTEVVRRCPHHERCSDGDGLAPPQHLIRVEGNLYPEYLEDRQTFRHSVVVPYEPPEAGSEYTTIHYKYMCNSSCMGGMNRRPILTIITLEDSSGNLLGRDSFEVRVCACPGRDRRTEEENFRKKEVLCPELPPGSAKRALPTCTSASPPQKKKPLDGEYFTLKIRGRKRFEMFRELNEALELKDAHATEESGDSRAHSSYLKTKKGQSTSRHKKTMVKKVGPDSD

O=C(NCCCN1CCCC1)c1ccc(/C=C2\CCn3c2nc2cc(NCCN4CCCC4)c(F)cc2c3=O)cc1
active: inhibition [2] | inhibition (SiHa [3]) | Activity (Homo sapiens [5]) | inhibition [6] | inhibition (Homo sapiens [12]) Dose-dependent effect | inhibition (Homo sapiens [17]) Dose-dependent effect | inhibition [18] | inhibition [19] | inhibition [20] | Activity [22] Dose-dependent effect | inhibition (Homo sapiens [24]) Dose-dependent effect | growth inhibition (GI) (SiHa [25]) Dose-dependent effect | Activity [26] | inhibition (Homo sapiens [27]) Dose-dependent effect | inhibition (Homo sapiens [28]) Dose-dependent effect | inhibition (Homo sapiens [30]) Dose-dependent effect | inhibition (Homo sapiens [32]) Dose-dependent effect | inhibition (Homo sapiens [33]) Dose-dependent effect | inhibition (Homo sapiens [35]) | inhibition (Homo sapiens [37]) Dose-dependent effect
12.1 °C: ΔTm [8]
Non-Toxic: Activity [1] | Activity [4] | Activity (SiHa [7]) | Activity [9] | Activity [11] | growth inhibition (GI) [13] | Activity [16] | Activity [31]
4.3: Ratio [14]
58.6%: Activity [36]
73.4%: Activity [23]
42.3%: Activity [10]
inactive: Activity (SiHa [15]) | Activity (SiHa [21]) | Activity [29] | growth inhibition (GI) (SiHa [34])

CCN(CC)CCNC(=O)c1ccc(/C=C2\CCn3c2nc2cc(NCCCN4CCCC4)c(F)cc2c3=O)cc1
38%: Activity [48]
active: inhibition [2] | inhibition [6] | Activity (Homo sapiens [40]) | inhibition (Homo sapiens [12]) Dose-dependent effect | inhibition (SiHa [44]) | inhibition (Homo sapiens [17]) Dose-dependent effect | Activity [22] Dose-dependent effect | inhibition (Homo sapiens [24]) Dose-dependent effect | growth inhibition (GI) (SiHa [46]) Dose-dependent effect | Activity [26] | inhibition (Homo sapiens [27]) Dose-dependent effect | inhibition (Homo sapiens [28]) Dose-dependent effect | inhibition (Homo sapiens [30]) Dose-dependent effect | inhibition (Homo sapiens [32]) Dose-dependent effect | inhibition (Homo sapiens [33]) Dose-dependent effect | inhibition (Homo sapiens [35]) | inhibition (Homo sapiens [37]) Dose-dependent effect
12.9 °C: ΔTm [8]
Non-Toxic: Activity [41] | Activity (SiHa [42]) | Activity [43] | growth inhibition (GI) [13] | Activity [50] | Activity [51] | Activity [52] | Activity [53]
65.7%: Activity [38]
41.4%: Activity [45]
3.4: Ratio [14]
inactive: Activity (SiHa [39]) | Activity [47] | growth inhibition (GI) (SiHa [49]) | Activity (SiHa [54])
